The results in this text go back to patent publication US12605459B2, “Protein-drug conjugates comprising camptothecin analogs and methods of use thereof” (priority 2020, dated 2026).

Where two headings read alike, the source gives them in different places. Non-standard residues stand in square brackets, D forms with d. Residues, ends and D or L forms follow the SMILES beside them. *: point of attachment. Dolaproine = CO[C@@H]([C@@H]1CCCN1)[C@@H](C)C(=O)O; Dil = CC[C@H](C)[C@H](NC)[C@@H](CC(=O)O)OC; X1 = C[C@@H](N*)[C@@H](O)c1ccccc1; NMeV = CN[C@H](C(=O)O)C(C)C

The test system of test [1] is SK-BR-3, Calu-3 and NCI-H1975 cells. As to the kind of experiment: In vitro cytotoxicity assay, statements pooled over several tested lines (SK-BR-3, Calu-3, NCI-H1975). The test is classed as cell-based, human. The settings on record: all tested cells; units printed with the values (pM, nM). Here is the method:
(§1) To test the ability of anti-HER2 or anti-STEAP2 antibody drug conjugates (ADCs) of the present disclosure to kill human cell lines, an in vitro cytotoxicity assay was performed. In vitro cytotoxicity of the ADCs, isotype control ADCs, and reference free payloads were evaluated using the CellTiter-Glo 2.0 Assay Kit (Promega, Cat #g9243), in which the quantity of ATP present is used to determine the number of viable cells in culture.
For the assay, Calu-3, SK-BR-3, NCI-H1975, C42, or C42/STEAP2 KO (knockout) cells were seeded at 1000 cells/well in poly-D-lysine coated white 96 well Biocoat plates (Corning #356693) in complete growth medium and grown overnight at 37° C. in 5% CO2. Three-fold serial dilutions of anti-HER2 ADCs or isotype control ADCs were prepared in dilution media (Optimem+0.1% BSA) and added to cells at final concentrations ranging from 100 nM to 0.015 nM (concentrations were corrected for the DAR (drug antibody ratio) and dosed based on the effective payload concentration). […] Relative light units (RLUs) were measured on an Envision luminometer (PerkinElmer), and cell viability was expressed as a percentage of the untreated (100% viable) cells. IC50 values were determined using a four-parameter logistic equation over a 10-point dose response curve (GraphPad Prism). The maximum % kill was also determined for each test article as follows: 100—minimum percent viability.

The subject of test [2] is NCI-H1975 cells. Description: In vitro cytotoxicity assay in tumor lines (CellTiter-Glo 2.0), NCI-H1975. The test is classed as cell-based, human. Conditions: six days; for IC50: concentrations corrected for DAR. Here is the method:
as §1
(§2) For the assay, Calu-3, SK-BR-3, NCI-H1975, C42, or C42/STEAP2 KO (knockout) cells were seeded at 1000 cells/well in poly-D-lysine coated white 96 well Biocoat plates (Corning #356693) in complete growth medium and grown overnight at 37° C. in 5% CO2. Three-fold serial dilutions of anti-HER2 ADCs or isotype control ADCs were prepared in dilution media (Optimem+0.1% BSA) and added to cells at final concentrations ranging from 100 nM to 0.015 nM (concentrations were corrected for the DAR (drug antibody ratio) and dosed based on the effective payload concentration). Three-fold serial dilutions of free payloads were prepared in 100% DMSO, transferred to fresh dilution media, and then added to the cells at a final constant DMSO concentration of 0.2% and final payload concentrations ranging from 100 nM to 0.015 nM. The last well in each dilution series (untreated wells) served as blank controls containing only the media (ADCs) or media plus 0.2% DMSO (payloads) and was plotted as a continuation of the 3-fold serial dilution. Six days later, 100 μL of CellTiter glo 2.0 was added to each well, plates were mixed for 2 minutes on an orbital shaker, and plates were incubated at room temperature for 10 minutes. Relative light units (RLUs) were measured on an Envision luminometer (PerkinElmer), and cell viability was expressed as a percentage of the untreated (100% viable) cells. IC50 values were determined using a four-parameter logistic equation over a 10-point dose response curve (GraphPad Prism). The maximum % kill was also determined for each test article as follows: 100—minimum percent viability.

Test [3] deals with C4-2/STEAP2 KO cells. As to the kind of experiment: In vitro cytotoxicity assay in tumor lines (CellTiter-Glo 2.0), C4-2/STEAP2 KO. It counts as cell-based, human. Here is the method: The last well in each dilution series (untreated wells) served as blank controls containing only the media (ADCs) or media plus 0.2% DMSO (payloads) and was plotted as a continuation of the 3-fold serial dilution. […] Relative light units (RLUs) were measured on an Envision luminometer (PerkinElmer), and cell viability was expressed as a percentage of the untreated (100% viable) cells. IC50 values were determined using a four-parameter logistic equation over a 10-point dose response curve (GraphPad Prism).
In general terms: ATP-based viability assays read luminescence as a measure of living cells.

Test [4] has as its system C4-2 cells. Description: In vitro cytotoxicity assay in tumor lines (CellTiter-Glo 2.0), C4-2. It counts as cell-based, human. Here is the method: as §1, §2
In test [5] the test system is Calu-3 cells. It counts as cell-based, human. Conditions: Table 27 (second experiment), six days. Here is the method:
as §1, §2

Test [6] deals with SK-BR-3 cells. It counts as cell-based, human. Conditions: six days; for IC50: concentrations corrected for DAR. On the procedure:
as §1, §2

In test [7] the test system is HCT-15. As to the kind of experiment: cells. It counts as cell-based.
[8] abbreviates: Homo sapiens, HCT-15, read-out: IC50 (nM) +v.
The mark [9] stands for this setting: Homo sapiens, HCT-15, read-out: IC50 (nM) −v.

Usually IC50 stands for the concentration needed to halve the response being measured. Take `CC[C@@]1(O)C(=O)OCc2c1cc1n(c2=O)Cc2c-1nc1cc(F)c(C)c3c1c2[C@@H](NC(=O)CO)CC3` [Dxd]: the IC50 in test [1] is 787 to 11800 pM; in test [2] (Table 26 (first experiment)) it was 8.91 nM; in test [2] (Table 27 (second experiment)), 11.8 nM; in test [3] (C4-2/STEAP2 KO cells, 6 days), 3.43 nM; in test [4] (C4-2 cells, 6 days), 2.54 nM; in test [5] (concentrations corrected for DAR) it was 2.14 nM. For the same molecule, the IC50 was found to be 0.787 nM in test [6] (Table 26 (first experiment)) and 1.56 nM in test [6] (Table 27 (second experiment)). The “NCI-H1975 Max % Kill” value in test [2] (Table 26 (first experiment)) came to 95.9%; in test [2] (Table 27 (second experiment)), 96.1%. Besides, the “C4-2/STEAP2 KO Max % Kill” value in test [3] (Table 28, six days) amounted to 88.9%. Moreover, the maximum % kill in test [4] (C4-2 cells, 6 days) is given as 81.7%. In test [4] (Table 28, six days), the “C4-2 Max % Kill” value was 81.7%. Further, the “Calu-3 Max % Kill” value in test [5] was 96.3%. Besides, the “SK-BR-3 Max % Kill” value in test [6] (Table 26 (first experiment)) was 97.1%; in test [6] (Table 27 (second experiment)), 98.2%.
In the case of `CC[C@H](C)[C@@H]([C@@H](CC(=O)N1CCC[C@H]1[C@H](OC)[C@@H](C)C(=O)N[C@H](C)[C@@H](O)c1ccccc1)OC)N(C)C(=O)[C@@H](NC(=O)[C@@H](NC)C(C)C)C(C)C` [MMAE] (H-[NMeV]V[Dil][Dolaproine]-X1), in test [7] (HCT-15, with verapamil), the “Ratio to MMAE +v” value stood at 1x. Further, the IC50 in test [7] (HCT-15, with verapamil, read-out: IC50 (nM) +v) was found to be 0.946 nM; in test [7] (HCT-15, without verapamil, read-out: IC50 (nM) −v) it was 14.8 nM. Besides, the “Ratio to MMAE −v” value in test [7] (HCT-15, without verapamil) was 1x.
As to `CC[C@@]1(O)C(=O)OCc2c1cc1n(c2=O)Cc2c-1nc1cc(F)c(C)c3c1c2[C@@H](N)CC3` [P1, Exatecan], the “Ratio to MMAE +v” value in test [7] (HCT-15, with verapamil) came to 1.833x. Moreover, the “Ratio to MMAE −v” value in test [7] (HCT-15, without verapamil) is 0.087x. The IC50 in test [7] (Homo sapiens, HCT-15, with verapamil, read-out: IC50 (nM) +v) is 1.73 nM; in test [7] (Homo sapiens, HCT-15, without verapamil, read-out: IC50 (nM) −v), 1.29 nM.
Turning to `CC[C@@]1(O)C(=O)OCc2c1cc1n(c2=O)Cc2c-1nc1cc(F)c(C)c3c1c2[C@@H](NC(=O)CO)CC3` [P2, Dxd], the IC50 in test [7] (setting [8]) came out at 2.65 nM; in test [7] (setting [9]), 7 nM.
For the molecule `CC[C@@]1(O)C(=O)OCc2c1cc1n(c2=O)Cc2c-1nc1cc(F)c(C)c3c1c2[C@@H](NC(=O)COCNC(=O)CN)CC3` [P3], the “Ratio to MMAE +v” value in test [7] (HCT-15, with verapamil) came to 23.426x. For the same molecule, the “Ratio to MMAE −v” value in test [7] (HCT-15, without verapamil) stood at 3.011x. Further, the IC50 in test [7] (setting [8]) came out at 22.2 nM; in test [7] (setting [9]), 44.9 nM.
